# Test results reported in patent US9181258B2, “Substituted 3,4-dihydropyrrolo[1,2-a]pyrazin-1(2H)-ones as protein kinase inhibitors” (NERVIANO MEDICAL SCIENCES S.R.L., priority 2011, dated 2015).
# Structures can show the parent of a compound that is named as a salt.
# Legend:
# BaF3-PIM1 cells = assay: In vitro cell proliferation assay (CellTiter-Glo), BaF3-PIM1; format: cell-based; conditions: 72 hours
# Description: In Vitro Cell Proliferation Assay
# BaF3-PIM1 and MV-4-11 cells were seeded at 125 cells/well and 1250 cells/well respectively in a 384-well white plates in complete medium and treated with compounds dissolved in 0.1% DMSO, 24 h after seeding.
# The cells were incubated at 37° C. and 5% CO2 and after 72 hours the plates were processed using CellTiter-Glo assay (Promega) following the manufacturer's instruction.
# CellTiter-Glo was a homogenous method based on the quantification of the ATP present, an indicator of metabolitically active cells. ATP was quantified using a system based on luciferase and D-luciferin resulting into light generation. The luminescent signal was proportional to the number of cells present in culture.
# Briefly 25 μl/well reagent solution were added to each wells and after 5 minutes shacking microplates were red by Envision (PerkinElmer) luminometer. The luminescent signal was proportional to the number of cells present in culture.
# Inhibitory activity was evaluated comparing treated versus control data using Assay Explorer (MDL) program. IC50 was calculated using sigmoidal interpolation curve.
# human PIM2 = human PIM2 (Homo sapiens (Human), UniProt Q9P1W9); assay: PIM2 kinase inhibition assay: Dowex technique; format: biochemical; conditions: ATP 4 μM, Aktide 5 μM, enzyme 1.5 nM; read-out: PIM-2 IC50
# Chain of human PIM2 (Q9P1W9 whole entry): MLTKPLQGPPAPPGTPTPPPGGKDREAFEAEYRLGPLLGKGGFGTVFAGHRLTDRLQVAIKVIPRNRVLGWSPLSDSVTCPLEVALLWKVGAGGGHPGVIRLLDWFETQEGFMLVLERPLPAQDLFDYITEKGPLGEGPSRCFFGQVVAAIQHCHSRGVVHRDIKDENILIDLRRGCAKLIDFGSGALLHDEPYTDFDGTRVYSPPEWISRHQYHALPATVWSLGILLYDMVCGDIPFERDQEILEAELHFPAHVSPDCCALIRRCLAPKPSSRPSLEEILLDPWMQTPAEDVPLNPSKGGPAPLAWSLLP
# Description: Method for PIM2 Kinase Inhibition Assay: Dowex Technique
# The buffer for PIM2 assay was composed of HEPES 50 mM, at pH 7.5, with 1 mM MgCl2, 1 mM DTT, 3 μM Na3VO4, and 0.2 mg/mL BSA.
# Full-length human PIM2 was expressed and purified as described in Fedorov O, et al., PNAS 2007 104, 51, 20523-28. ii. Assay Conditions (Final Concentrations)
# Enzyme concentration=1.5 nM; ATP=4 μM; ^33P-γ-ATP=1 nM
# Aktide substrate (Chemical Abstract Service Registry Number 324029-01-8)=5 μM iii. Robotized Dowex Assay
# See above: same procedure as described for PIM1.
# human PIM1 = human PIM1 (Homo sapiens (Human), UniProt P11309); assay: Biochemical assay for inhibitors of PIM1 kinase activity (trans-phosphorylation, Dowex technique); conditions: ATP 200 μM, Aktide 25 μM, enzyme 1 nM; read-out: PIM-1 IC50
# Chain of human PIM1 (P11309 whole entry): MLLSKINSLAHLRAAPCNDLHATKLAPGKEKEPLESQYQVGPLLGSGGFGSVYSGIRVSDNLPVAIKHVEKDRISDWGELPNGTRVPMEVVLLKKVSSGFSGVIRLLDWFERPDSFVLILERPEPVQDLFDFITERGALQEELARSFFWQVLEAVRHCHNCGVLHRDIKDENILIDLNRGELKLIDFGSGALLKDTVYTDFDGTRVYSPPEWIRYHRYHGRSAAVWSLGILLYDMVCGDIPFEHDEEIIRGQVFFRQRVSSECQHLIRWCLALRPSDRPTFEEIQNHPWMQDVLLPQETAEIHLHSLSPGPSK
# Description: Biochemical Assay for Inhibitors of PIM1 Kinase Activity
# The inhibitory activity of putative kinase inhibitors and the potency of selected compounds were determined using a trans-phosphorylation assay.
# Specific peptide or protein substrates were trans-phosphorylated by their specific ser-thr or tyr kinase in the presence of ATP traced with ^33P-γ-ATP, and in the presence of their own optimal buffer and cofactors.
# At the end of the phosphorylation reaction, more than 98% unlabeled ATP and radioactive ATP were captured by an excess of the ion exchange dowex resin; the resin then settled down to the bottom of the reaction plate by gravity. Supernatant was subsequently withdrawn and transferred into a counting plate, then evaluated by β-counting.
# Reagents/Assay Conditions i. Dowex Resin Preparation
# 500 g of wet resin (SIGMA, custom prepared resin DOWEX 1×8 200-400 mesh, 2.5 Kg) were weighed out and diluted to 2 L in 150 mM sodium formate, pH 3.00.
# The resin was allowed to settle down (some hours) and then the supernatant was discarded.
# After three washes as above over a couple of days, the resin was allowed to settle and two volumes (wrt the resin volume) of 150 mM sodium formate buffer were added.
# The pH was then measured and should have been around 3.00.
# The washed resin was stable for more than one week; the stock resin was kept at 4° C. before use.
# The buffer for PIM1 assay was composed of HEPES 50 mM, at pH 7.5, with 10 mM MgCl2, 1 mM DTT, 3 μM NaVO3, and 0.2 mg/mL BSA.
# Full-length human PIM1 was expressed and purified as described in Bullock A N, et al., J. Biol. Chem. 2005, 280, 41675-82.
# 1.7 μM PIM1 was incubated 1 h at 28° C. in the presence of 125 μM ATP.
# ATP concentration: 200 μM; ^33P-γ-ATP: 6 nM; Enzyme concentration: 1 nM Substrate concentration Aktide (Chemical Abstract Service Registry Number 324029-01-8): 25 μM iv. Robotized Dowex Assay
# The test mix consisted of:
# 1) 3× Enzyme mix (done in Kinase Buffer 3×), 5 μL/well
# 2) 3× substrate and ATP mix (done in ddH2O), together with ^33P-γ-ATP, 5 μL/well 3) 3× test compounds (diluted into ddH2O—3% DMSO)—5 μL/well See below for compound dilution and assay scheme […]
# An automated station (Biomek FX, Beckman) was used for serial dilutions, producing 1:3 dilutions in 100% DMSO, from line A1 to A10, for all the compounds in the column.
# Data were analyzed by an internally customized version of the “Assay Explorer” SW package, which provided sigmoidal fitting of the ten-dilution curves for IC50 determination in secondary assay/hit confirmation routines.
SMILES,IC50 (BaF3-PIM1 cells),IC50 (human PIM2),IC50 (human PIM1)
"NCCC1CNC(=O)c2cc(-c3cccc(Cl)c3)c(-c3ccccc3)n21 (stereo not drawn) [Compound 17, 4-(2-aminoethyl)-7-(3-chlorophenyl)-6-phenyl-3,4-dihydropyrrolo[1,2-a]pyrazin-1(2H)-one trifluoroacetate]",0.45 µM,117 nM,34 nM
"NCCC1CNC(=O)c2cc(-c3cccc(OC(F)(F)F)c3)c(-c3cccc(N)c3)n21 (stereo not drawn) [Compound 32, 4-(2-aminoethyl)-6-(3-aminophenyl)-7-[3-(trifluoromethoxy)phenyl]-3,4-dihydropyrrolo[1,2-a]pyrazin-1(2H)-one hydrochloride]",2.02 µM,69 nM,8 nM
"NCCC1CNC(=O)c2cc(-c3cccc(OC(F)(F)F)c3)c(-c3ccc(CO)cc3)n21 (stereo not drawn) [Compound 33, 4-(2-aminoethyl)-6-[4-(hydroxymethyl)phenyl]-7-[3-(trifluoromethoxy)phenyl]-3,4-dihydropyrrolo[1,2-a]pyrazin-1(2H)-one hydrochloride]",0.598 µM,15 nM,4 nM
"NCCC1CNC(=O)c2cc(-c3cccc(C(F)(F)F)c3)c(-c3ccc(CO)cc3)n21 (stereo not drawn) [Compound 38, 4-(2-aminoethyl)-6-[4-(hydroxymethyl)phenyl]-7-[3-(trifluoromethyl)phenyl]-3,4-dihydropyrrolo[1,2-a]pyrazin-1(2H)-one hydrochloride]",3.03 µM,102 nM,20 nM
"NCCC1CNC(=O)c2cc(-c3cccc(C(F)(F)F)c3)c(-c3ccc(O)cc3)n21 (stereo not drawn) [Compound 43, 4-(2-aminoethyl)-6-(4-hydroxyphenyl)-7-[3-(trifluoromethyl)phenyl]-3,4-dihydropyrrolo[1,2-a]pyrazin-1(2H)-one hydrochloride]",7 µM,21 nM,12 nM
"CN(C)CCNC(=O)c1ccc(-c2c(-c3cccc(OC(F)(F)F)c3)cc3n2C(CCO)CNC3=O)cc1 (stereo not drawn) [Compound 78, N-[2-(dimethylamino)ethyl]-4-{4-(2-hydroxyethyl)-1-oxo-7-[3-(trifluoromethoxy)phenyl]-1,2,3,4-tetrahydropyrrolo[1,2-a]pyrazin-6-yl}benzamide trifluoroacetate]",4.07 µM,90 nM,6 nM
"CN(C)C(=O)c1ccc(-c2c(-c3cccc(OC(F)(F)F)c3)cc3n2C(CCO)CNC3=O)cc1 (stereo not drawn) [Compound 79, 4-{4-(2-hydroxyethyl)-1-oxo-7-[3-(trifluoromethoxy)phenyl]-1,2,3,4-tetrahydropyrrolo[1,2-a]pyrazin-6-yl}-N,N-dimethylbenzamide]",1.22 µM,93 nM,13 nM
"CNC(=O)c1ccc(-c2c(-c3cccc(OC(F)(F)F)c3)cc3n2C(CCO)CNC3=O)cc1 (stereo not drawn) [Compound 80, 4-{4-(2-hydroxyethyl)-1-oxo-7-[3-(trifluoromethoxy)phenyl]-1,2,3,4-tetrahydropyrrolo[1,2-a]pyrazin-6-yl}-N-methylbenzamide]",3.81 µM,75 nM,20 nM
"O=C1NCC(CCO)n2c1cc(-c1cccc(OC(F)(F)F)c1)c2-c1ccc(CO)cc1 (stereo not drawn) [Compound 84, 4-(2-hydroxyethyl)-6-[4-(hydroxymethyl)phenyl]-7-[3-(trifluoromethoxy)phenyl]-3,4-dihydropyrrolo[1,2-a]pyrazin-1(2H)-one]",0.224 µM,90 nM,11 nM
"NCC[C@H]1CNC(=O)c2cc(-c3cccc(OC(F)(F)F)c3)c(-c3ccc(O)cc3)n21 [Compound 93, (4S)-4-(2-aminoethyl)-6-(4-hydroxyphenyl)-7-[3-(trifluoromethoxy)phenyl]-3,4-dihydropyrrolo[1,2-a]pyrazin-1(2H)-one hydrochloride]",0.699 µM,16 nM,1 nM
"NCCC[C@H]1CNC(=O)c2cc(-c3cccc(OC(F)(F)F)c3)c(-c3ccc(O)cc3)n21 [Compound 104, (4S)-4-(3-aminopropyl)-6-(4-hydroxyphenyl)-7-[3-(trifluoromethoxy)phenyl]-3,4-dihydropyrrolo[1,2-a]pyrazin-1(2H)-one hydrochloride]",7 µM,48 nM,4 nM

# More lines, in order of falling IC50 (BaF3-PIM1 cells), values ahead:
IC50 (BaF3-PIM1 cells),IC50 (human PIM2),IC50 (human PIM1),SMILES
6.95 µM,109 nM,16 nM,"NCCC[C@H]1CNC(=O)c2cc(-c3cccc(OC(F)(F)F)c3)c(-c3ccc(CO)cc3)n21 [Compound 105, (4S)-4-(3-aminopropyl)-6-[4-(hydroxymethyl)phenyl]-7-[3-(trifluoromethoxy)phenyl]-3,4-dihydropyrrolo[1,2-a]pyrazin-1(2H)-one hydrochloride]"
6.57 µM,110 nM,24 nM,"NCCC1CNC(=O)c2cc(-c3ccnc(Cl)c3)c(-c3ccc(CO)cc3)n21 (stereo not drawn) [Compound 44, 4-(2-aminoethyl)-7-(2-chloropyridin-4-yl)-6-[4-(hydroxymethyl)phenyl]-3,4-dihydropyrrolo[1,2-a]pyrazin-1(2H)-one hydrochloride]"
6.51 µM,82 nM,11 nM,"CS(=O)(=O)c1ccc(-c2c(-c3cccc(OC(F)(F)F)c3)cc3n2[C@@H](CCCN)CNC3=O)cc1 [Compound 109, (4S)-4-(3-aminopropyl)-6-[4-(methylsulfonyl)phenyl]-7-[3-(trifluoromethoxy)phenyl]-3,4-dihydropyrrolo[1,2-a]pyrazin-1(2H)-one hydrochloride]"
6.05 µM,69 nM,11 nM,"CN1CCC(NC(=O)c2ccc(-c3c(-c4cccc(OC(F)(F)F)c4)cc4n3C(CCO)CNC4=O)cc2)CC1 (stereo not drawn) [Compound 81, 4-{4-(2-hydroxyethyl)-1-oxo-7-[3-(trifluoromethoxy)phenyl]-1,2,3,4-tetrahydropyrrolo[1,2-a]pyrazin-6-yl}-N-(1-methylpiperidin-4-yl)benzamide trifluoroacetate]"
5.47 µM,3 nM,1 nM,"CS(=O)(=O)c1ccc(-c2c(-c3cccc(OC(F)(F)F)c3)cc3n2[C@@H](CCN)CNC3=O)cc1 [Compound 96, (4S)-4-(2-aminoethyl)-6-[4-(methylsulfonyl)phenyl]-7-[3-(trifluoromethoxy)phenyl]-3,4-dihydropyrrolo[1,2-a]pyrazin-1(2H)-one hydrochloride]"
2.33 µM,58 nM,7 nM,"NC(=O)c1ccc(-c2c(-c3cccc(OC(F)(F)F)c3)cc3n2C(CCO)CNC3=O)cc1 (stereo not drawn) [Compound 77, 4-{4-(2-hydroxyethyl)-1-oxo-7-[3-(trifluoromethoxy)phenyl]-1,2,3,4-tetrahydropyrrolo[1,2-a]pyrazin-6-yl}benzamide]"
0.21 µM,99 nM,27 nM,"CN1CCN(Cc2ccc(-c3c(-c4cccc(OC(F)(F)F)c4)cc4n3[C@@H](CCCl)CNC4=O)cc2)CC1 [Compound 106, (4S)-4-(2-chloroethyl)-6-{4-[(4-methylpiperazin-1-yl)methyl]phenyl}-7-[3-(trifluoromethoxy)phenyl]-3,4-dihydropyrrolo[1,2-a]pyrazin-1(2H)-one]"
